According to US20110136792A1, “NOVEL CARBOXYLIC ACID ANALOGS AS GLYCOGEN SYNTHASE ACTIVATORS” (priority 2009, published 2011):

System: glycogen synthase
Assay: Glycogen Synthase (GS) Assay
Type: biochemical
Conditions: coupled pyruvate kinase/lactate dehydrogenase assay, absorbance at 340 nm; for EC50: compound concentration needed to give 50% maximum activation; for GS SC200: compound concentration needed to stimulate 200% of the enzyme activity
Description: The following tests were carried out in order to determine the activity of the compounds of formula (I).
Twelve μL per well of substrate solution containing glycogen (4.32 mg/ml), 2.67 mM UDP-glucose, 21.6 mM phospho(enol)pyruvate and 2.7 mM NADH in 30 mM glycylglycine, pH 7.3 buffer was added into a polystyrene 384-well assay plate (BD Biosciences).
Compound solutions (8 μL/well) at various concentrations (0-300 μM) were added to the assay plate (columns 5-24). Compound solution contains 30 mM glycylglycine, pH 7.3, 40 mM KCl, 20 mM MgCl2, 9.2% DMSO, with (columns 15-24) or without (columns 5-14) 20 mM glucose 6-phosphate.
Enzyme solution (12 μL/well) containing glycogen synthase (16.88 μg/ml), pyruvate kinase (0.27 mg/ml), lactate dehydrogenase (0.27 mg/ml) in 50 mM Tris-HCl, pH 8.0, 27 mM DTT and bovine serum albumin (BSA, 0.2 mg/ml) was added to the assay plate (columns 3-24). As a blank control, enzyme solution without glycogen synthase was added into the top half wells of columns 1-2. To the bottom half wells of columns 1-2 were added a known activator, glucose 6-phosphate (at final concentration 5 mM) in addition to the enzyme solution. The reaction mixture was incubated at room temperature. The assay plate was then read for absorbance at 340 nm on an Envision reader every 3 minutes up to a total of 15 minutes.
The enzyme activity (with or without compound) was calculated by the reaction rate and represented by the optical density change (δOD) per minute. Percent stimulation of glycogen synthase activity by a compound at various concentrations was calculated by the following formula: […]
Where Rs is the reaction rate of the enzyme in the presence of compound and Rt is the reaction rate of the enzyme in the absence of compound.
SC200 is defined as the compound concentration that is needed to stimulate 200% of the enzyme activity. EC50 is defined as the compound concentration that is needed to give 50% maximum activation.
Compounds from Examples 1 through Example 64 were assayed according to assay procedures described above and the result is listed in Table 1 below: […]

EC50 | SMILES | GS SC200
0.72 µM | COc1cc(F)c(F)cc1-c1ccc(OCc2cccc(CN(CC(=O)O)C(=O)C3CCC3)c2)cc1 [Example 4, {Cyclobutanecarbonyl-[3-(4′,5′-difluoro-2′-methoxy-biphenyl-4-yloxymethyl)-benzyl]-amino}-acetic acid] | 0.18 µM
3.67 µM | CC(C)(C)C(=O)N(CC(=O)O)Cc1cccc(COc2ccc(-c3ccc(F)cc3F)cc2)c1 [Example 11, [[3-(2′,4′-Difluoro-biphenyl-4-yloxymethyl)-benzyl]-(2,2-dimethyl-propionyl)-amino]-acetic acid] | 0.97 µM
4.31 µM | O=C(O)CN(Cc1cccc(COc2ccc(-c3ccc(F)cc3F)cc2)c1)C(=O)C1CC1 [Example 12, {Cyclopropanecarbonyl-[3-(2′,4′-difluoro-biphenyl-4-yloxymethyl)-benzyl]-amino}-acetic acid] | 0.75 µM
0.93 µM | O=C(O)CN(Cc1cccc(COc2ccc(-c3ccc(F)cc3F)cc2)c1)C(=O)N1CCOCC1 [Example 13, [[3-(2′,4′-Difluoro-biphenyl-4-yloxymethyl)-benzyl]-(morpholine-4-carbonyl)-amino]-acetic acid] | 0.10 µM
1.31 µM | Cn1ccnc1C(=O)N(CC(=O)O)Cc1cccc(COc2ccc(-c3ccc(F)cc3F)cc2)c1 [Example 14, [[3-(2′,4′-Difluoro-biphenyl-4-yloxymethyl)-benzyl]-(1-methyl-imidazole-2-carbonyl)-amino]-acetic acid] | 0.15 µM
1.43 µM | O=C(O)CN(Cc1cccc(COc2ccc(-c3ccc(F)cc3F)cc2)c1)C(=O)c1cccnc1 [Example 15, [[3-(2′,4′-Difluoro-biphenyl-4-yloxymethyl)-benzyl]-(pyridine-3-carbonyl)-amino]-acetic acid] | 0.15 µM
1.54 µM | O=C(O)CN(Cc1cccc(COc2ccc(-c3ccc(F)cc3F)cc2)c1)C(=O)c1ccccn1 [Example 16, [[3-(2′,4′-Difluoro-biphenyl-4-yloxymethyl)-benzyl]-(pyridine-2-carbonyl)-amino]-acetic acid] | 0.43 µM
1.53 µM | COCC(C)C(=O)N(CC(=O)O)Cc1cccc(COc2ccc(-c3ccc(F)cc3F)cc2)c1 (stereo not drawn) [Example 17, [[3-(2′,4′-Difluoro-biphenyl-4-yloxymethyl)-benzyl]-(3-methoxy-2-methyl-propionyl)-amino]-acetic acid] | 0.36 µM
0.43 µM | COc1cc(F)c(F)cc1-c1ccc(OCc2cccc(CN(CC(=O)O)C(C)=O)c2)cc1 [Example 21, {Acetyl-[3-(4′,5′-difluoro-2′-methoxy-biphenyl-4-yloxymethyl)-benzyl]-amino}-acetic acid] | 0.16 µM
0.26 µM | COc1cc(F)c(F)cc1-c1ccc(OCc2cccc(CN(CC(=O)O)C(=O)C3CC3)c2)cc1 [Example 22, {Cyclopropanecarbonyl-[3-(4′,5′-difluoro-2′-methoxy-biphenyl-4-yloxymethyl)-benzyl]-amino}-acetic acid] | 0.03 µM

The remaining lines, values behind:

SMILES | EC50 | GS SC200
O=C(O)C1CCS(=O)(=O)N1Cc1cccc(COc2ccc(-c3cc(F)c(F)cc3F)cc2)c1 (racemic) [Example 38, 1,1-Dioxo-2-[3-(2′,4′,5′-trifluoro-biphenyl-4-yloxymethyl)-benzyl]-1lambda*6*-isothiazolidine-3-carboxylic acid] | 0.13 µM | 0.05 µM
Cc1cc(F)c(F)cc1-c1ccc(OCc2cccc(CN3C(C(=O)O)CCS3(=O)=O)c2)cc1 (racemic) [Example 39, 2-[3-(4′,5′-Difluoro-2′-methyl-biphenyl-4-yloxymethyl)-benzyl]-1,1-dioxo-1lambda*6*-isothiazolidine-3-carboxylic acid] | 0.18 µM | 0.03 µM
O=C(O)C1CCS(=O)(=O)N1Cc1cccc(COc2ccc(-c3cc(F)c(F)cc3Cl)cc2)c1 (racemic) [Example 40, 2-[3-(2′-Chloro-4′,5′-difluoro-biphenyl-4-yloxymethyl)-benzyl]-1,1-dioxo-1lambda*6*-isothiazolidine-3-carboxylic acid] | 0.2 µM | 0.04 µM
COc1cc(F)c(F)cc1-c1ccc(OCc2cccc(CN3C(C(=O)O)CCS3(=O)=O)c2)cc1 (racemic) [Example 43, 2-[3-(4′,5′-Difluoro-2′-methoxy-biphenyl-4-yloxymethyl)-benzyl]-1,1-dioxo-1lambda*6*-isothiazolidine-3-carboxylic acid] | 0.19 µM | 0.03 µM
COc1cc(F)c(F)cc1-c1ccc(OCc2cccc(CN(CC(=O)O)C(=O)C(C)(C)C)c2)cc1 [Example 1, [[3-(4′,5′-Difluoro-2′-methoxy-biphenyl-4-yloxymethyl)-benzyl]-(2,2-dimethyl-propionyl)-amino]-acetic acid] | 1.34 µM | 0.21 µM
COc1cc(F)c(F)cc1-c1ccc(OCc2cccc(CN(CC(=O)O)C(=O)CC(C)C)c2)cc1 [Example 2, [[3-(4′,5′-Difluoro-2′-methoxy-biphenyl-4-yloxymethyl)-benzyl]-(3-methyl-butyryl)-amino]-acetic acid] | 1.08 µM | 0.13 µM
COc1cc(F)c(F)cc1-c1ccc(OCc2cccc(CN(CC(=O)O)C(=O)N3CCOCC3)c2)cc1 [Example 3, [[3-(4′,5′-Difluoro-2′-methoxy-biphenyl-4-yloxymethyl)-benzyl]-(morpholine-4-carbonyl)-amino]-acetic acid] | 0.69 µM | 0.11 µM
COc1cc(F)c(F)cc1-c1ccc(OCc2cccc(CN(CC(=O)O)C(=O)c3ccccc3)c2)cc1 [Example 5, {Benzoyl-[3-(4′,5′-difluoro-2′-methoxy-biphenyl-4-yloxymethyl)-benzyl]-amino}-acetic acid] | 0.45 µM | 0.09 µM
COc1cc(F)c(F)cc1-c1ccc(OCc2cccc(CN(CC(=O)O)C(=O)OC(C)C)c2)cc1 [Example 6, {[3-(4′,5′-Difluoro-2′-methoxy-biphenyl-4-yloxymethyl)-benzyl]-isopropoxycarbonyl-amino}-acetic acid] | 0.47 µM | 0.03 µM
CCS(=O)(=O)N(CC(=O)O)Cc1cccc(COc2ccc(-c3cc(F)c(F)cc3OC)cc2)c1 [Example 7, {[3-(4′,5′-Difluoro-2′-methoxy-biphenyl-4-yloxymethyl)-benzyl]-ethanesulfonyl-amino}-acetic acid] | 0.31 µM | 0.04 µM
COc1cc(F)c(F)cc1-c1ccc(OCc2cccc(CN(CC(=O)O)S(=O)(=O)c3ccccc3)c2)cc1 [Example 8, {Benzenesulfonyl-[3-(4′,5′-difluoro-2′-methoxy-biphenyl-4-yloxymethyl)-benzyl]-amino}-acetic acid] | 0.91 µM | 0.17 µM
COc1cc(F)c(F)cc1-c1ccc(OCc2cccc(CN(CC(=O)O)S(=O)(=O)C3CC3)c2)cc1 [Example 9, {Cyclopropanesulfonyl-[3-(4′,5′-difluoro-2′-methoxy-biphenyl-4-yloxymethyl)-benzyl]-amino}-acetic acid] | 0.52 µM | 0.06 µM
COc1cc(F)c(F)cc1-c1ccc(OCc2cccc(CN(CC(=O)O)S(C)(=O)=O)c2)cc1 [Example 10, {[3-(4′,5′-Difluoro-2′-methoxy-biphenyl-4-yloxymethyl)-benzyl]-methanesulfonyl-amino}-acetic acid] | 0.29 µM | 0.03 µM
CCS(=O)(=O)N(CC(=O)O)Cc1cccc(COc2ccc(-c3cc(F)c(F)cc3F)cc2)c1 [Example 18, {Ethanesulfonyl-[3-(2′,4′,5′-trifluoro-biphenyl-4-yloxymethyl)-benzyl]-amino}-acetic acid] | 0.16 µM | 0.07 µM
COC(=O)N(CC(=O)O)Cc1cccc(COc2ccc(-c3cc(F)c(F)cc3OC)cc2)c1 [Example 19, {[3-(4′,5′-Difluoro-2′-methoxy-biphenyl-4-yloxymethyl)-benzyl]-methoxycarbonyl-amino}-acetic acid] | 1.82 µM | 0.42 µM
CCOC(=O)N(CC(=O)O)Cc1cccc(COc2ccc(-c3cc(F)c(F)cc3OC)cc2)c1 [Example 20, {[3-(4′,5′-Difluoro-2′-methoxy-biphenyl-4-yloxymethyl)-benzyl]-ethoxycarbonyl-amino}-acetic acid] | 5.24 µM | 0.50 µM
CCC(=O)N(CC(=O)O)Cc1cccc(COc2ccc(-c3cc(F)c(F)cc3OC)cc2)c1 [Example 23, {[3-(4′,5′-Difluoro-2′-methoxy-biphenyl-4-yloxymethyl)-benzyl]-propionyl-amino}-acetic acid] | 0.37 µM | 0.10 µM
